Measured values as given in publication PMC4802607, “Crystal structure and biochemical characterization of the recombinant ThBgl, a GH1 β-glucosidase overexpressed in Trichoderma harzianum under biomass degradation conditions” (Biotechnology for Biofuels, 2016).

B1: rThBgl (Trichoderma harzianum) (protein)
chain: MLPKDFQWGFATAAYQIEGAIDKDGRGPSIWDTFCAIPGKIADGTSGVTACDSYNRTAEDIALLKSLGAKSYRFSISWSRIIPKGGRDDPVNQLGIDHYAQFVDDLLEAGITPFITLFHWDLPEELHQRYGGLLNRTEFPLDFENYARVMFKALPKVRNWITFNEPLCSAIPGYGSGTFAPGRQSTTEPWIVGHNLLVAHGRAVKVYRDEFKDLNDGQIGIVLNGDFTYPWDSSDPLDREAAERRLEFFTAWYADPIYLGDYPASMRKQLGDRLPEFTPEEKAFVLGSNDFYGMNHYTSNYIRHRTSPATADDTVGNVDVLFYNKEGQCIGPETESSWLRPCPAGFRDFLVWISKRYNYPKIYVTENGTSLKGENDLPKEKILEDDFRVNYYNEYIRAMFTAATLDGVNVKGYFAWSLMDNFEWADGYVTRFGVTYVDYENGQQRFPKKSAKSLKPLFDELIAKE

How the values were obtained:
rThBgl = molecular target: T1, rThBgl (Trichoderma harzianum, UniProt A0A127SA86); test: glucose tolerance of beta-glucosidase activity, […] glucose, triplicate; type: biochemical; details: read-out: % activity at 300 mM
T1 construct: gene bgl; full-length GH1 beta-glucosidase, bgl gene 1398 bp, pET28a, E. coli Rosetta; N-terminal His6-tag cut with thrombin for assays

purified protein = substrate: O=[N+]([O-])c1ccc(O[C@@H]2O[C@H](CO)[C@@H](O)[C@H](O)[C@H]2O)cc1; test: purified protein; details: 100 mM sodium phosphate pH 6.0, 40 °C, 0-10 mM substrate, 10 min

Row | Molecule | activity at 300000 µM (rThBgl) | Km (purified protein)
1 | OC[C@H]1OC(O)[C@H](O)[C@@H](O)[C@@H]1O (some centres unmarked) [glucose] | 50% | 
2 | B1 |  | 970 µM
